Test results: patent US10300140B2, “Sur-binding proteins against ERBB3” (I2 PHARMACEUTICALS, INC., priority 2012, dated 2019)

System: SKBR3 and BT474 cells
Experiment: Enhancement of MK-2206 in SKBR3 and BT474 proliferation
Assay type: cell-based, human
Settings: 0.125 or 0.375 nM NRG; single agent
Experimental: The ability of the SgGs to enhance AKT inhibition in unstimulated or NRG-stimulated SKBR3 cells was compared. An AKT inhibitor, MK-2206, was tested against the ErbB2 overexpressing cell lines SKBR3 (13I, 13J) and BT474 (13K, 13L). The indicated amounts of MK-2206 were applied to the cells and they were allowed to proliferate in complete medium containing 10% fetal bovine serum for 6 days (13I, 13K, 13L) or 3 days (13J). Cell content was measured using Cell Titer-Glo® (Promega).

`NC1(c2ccc(-c3nc4ccn5c(=O)[nH]nc5c4cc3-c3ccccc3)cc2)CCC1` [MK-2206] was tested, and the “ability to inhibit cell proliferation when cells stimulated with NRG” value was “dramatically reduced”.
